Reference: patent US20260317324A1, “BIFUNCTIONAL COMPOUNDS FOR DEGRADING BRAF VIA UBIQUITIN PROTEOSOME PATHWAY” (Nurix Therapeutics, Inc., priority 2023, published 2026)

Columns and labels:
Type in all cases: cell-based
BRAF V600E = target: T1, BRAF V600E (Homo sapiens, UniProt P15056, V600E); experiment: BRAF HiBiT degradation assay, C-terminal HiBiT-tagged BRAF V600E A375 cells (clone 1F10), Nano-Glo HiBiT Lytic assay; conditions: for Dmax: A-375
T1 construct: endogenous C-terminal HiBiT fusion tag on BRAF V600E allele; endogenous in cells; host or cells: A375 clone 1F10 (CRISPR-Cas9 knock-in of the HiBiT tag; parental A375 from ATCC)
In short: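 Degradation is measured as loss of HiBiT signal from BRAF V600E tagged at its native locus in A375 cells. Doses span 1 μM to 0.01 nM in half-log steps, in duplicate. Percent remaining is calculated against DMSO controls after subtracting untagged A375 background, and curve fitting yields DC50 and observed Dmax.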

BRAF G466V = target: T2, BRAF G466V (Homo sapiens, UniProt P15056, G466V); experiment: BRAF HiBiT degradation assay, C-terminal HiBiT-tagged BRAF G466V overexpressed in HCT-116 BRAF−/− cells (clone 8), Nano-Glo HiBiT Lytic assay
T2 construct: Horizon Discovery (HCT-116 BRAF−/− cells); host or cells: HCT-116 BRAF−/− cells, clone 8, lentiviral transduction
In short: (§1)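 First, the stable HiBiT-tagged cells were plated and incubated for 24 h. Next, compound was added in duplicate as an 11-point series with a 1 μM top concentration. Lytic detection followed, with DMSO-treated parental cells used for background. Finally, DC50 and Obs. Dmax relative to DMSO were derived from the % protein remaining curves.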

BRAF G469A = target: T3, BRAF G469A (Homo sapiens, UniProt P15056, G469A); experiment: BRAF HiBiT degradation assay, C-terminal HiBiT-tagged BRAF G469A overexpressed in HCT-116 BRAF−/− cells (clone 34), Nano-Glo HiBiT Lytic assay
T3 construct: Horizon Discovery (HCT-116 BRAF−/− cells); host or cells: HCT-116 BRAF−/− cells, clone 34, lentiviral transduction
In short: as §1

BRAF D594G = target: T4, BRAF D594G (Homo sapiens, UniProt P15056, D594G); experiment: BRAF HiBiT degradation assay, C-terminal HiBiT-tagged BRAF D594G overexpressed in HCT-116 BRAF−/− cells (clone 63), Nano-Glo HiBiT Lytic assay
T4 construct: Horizon Discovery (HCT-116 BRAF−/− cells); host or cells: HCT-116 BRAF−/− cells, clone 63, lentiviral transduction
In short: as §1

[1] = A375 (BRAF V600E), DC50 at 50%: fitted conc. at Y=50
[2] = A375 (BRAF V600E), percentage protein degraded at maximal compound effect relative to DMSO
[3] = BRAF G466V, DC50 at 50%: fitted conc. at Y=50
[4] = HCT-116, BRAF G466V, percentage protein degraded at maximal compound effect relative to DMSO
[5] = Class 2, BRAF G469A, DC50 at 50%: fitted conc. at Y=50
[6] = HCT-116, Class 2, BRAF G469A, percentage protein degraded at maximal compound effect relative to DMSO
[7] = BRAF D594G, DC50 at 50%: fitted conc. at Y=50
[8] = HCT-116, BRAF D594G, percentage protein degraded at maximal compound effect relative to DMSO
[9] = A375 (BRAF V600E, Class 1), DC50 at 50% degradation
[10] = A375 (BRAF V600E, Class 1), observed Dmax, % protein degraded relative to DMSO control
[11] = BRAF G466V (Class 3), HCT-116 BRAF−/− cells, DC50 at 50% degradation
[12] = BRAF G466V (Class 3), HCT-116 BRAF−/− cells, observed Dmax relative to DMSO control
[13] = BRAF G469A (Class 2), HCT-116 BRAF−/− cells, DC50 at 50% degradation
[14] = BRAF G469A (Class 2), HCT-116 BRAF−/− cells, observed Dmax relative to DMSO control
[15] = BRAF D594G (Class 3), HCT-116 BRAF−/− cells, DC50 at 50% degradation
[16] = BRAF D594G (Class 3), HCT-116 BRAF−/− cells, observed Dmax relative to DMSO control

T4 sequence (P15056 whole entry D594G): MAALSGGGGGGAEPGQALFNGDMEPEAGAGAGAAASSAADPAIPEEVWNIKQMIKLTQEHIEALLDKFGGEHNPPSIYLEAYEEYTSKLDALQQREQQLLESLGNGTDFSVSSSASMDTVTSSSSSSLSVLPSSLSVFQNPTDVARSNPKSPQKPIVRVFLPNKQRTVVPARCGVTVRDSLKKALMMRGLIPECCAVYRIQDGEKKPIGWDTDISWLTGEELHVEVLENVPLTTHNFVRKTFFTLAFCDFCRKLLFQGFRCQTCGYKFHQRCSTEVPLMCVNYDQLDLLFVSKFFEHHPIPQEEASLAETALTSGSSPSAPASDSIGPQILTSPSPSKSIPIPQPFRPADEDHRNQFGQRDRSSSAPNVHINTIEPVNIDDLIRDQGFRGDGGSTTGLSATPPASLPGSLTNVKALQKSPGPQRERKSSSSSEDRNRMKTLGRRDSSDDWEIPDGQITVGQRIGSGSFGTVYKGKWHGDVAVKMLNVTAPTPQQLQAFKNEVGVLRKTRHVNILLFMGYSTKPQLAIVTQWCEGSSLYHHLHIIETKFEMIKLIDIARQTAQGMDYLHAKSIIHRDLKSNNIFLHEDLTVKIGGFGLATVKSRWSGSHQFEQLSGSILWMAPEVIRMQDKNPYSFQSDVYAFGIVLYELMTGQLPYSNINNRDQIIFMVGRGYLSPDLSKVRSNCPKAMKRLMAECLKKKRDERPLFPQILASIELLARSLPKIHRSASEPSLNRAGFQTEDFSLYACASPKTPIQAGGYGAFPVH
T1 sequence (P15056 whole entry V600E, the tested form may be a part): as the sequence (P15056 whole entry D594G) above, with G594D, V600E counted along it
T2 sequence (P15056 whole entry G466V): as the sequence (P15056 whole entry D594G) above, with G466V, G594D counted along it
T3 sequence (P15056 whole entry G469A): as the sequence (P15056 whole entry D594G) above, with G469A, G594D counted along it

Structure (SMILES) | DC50 (BRAF V600E; [1]) [µM] | Dmax (BRAF V600E; [2]) [%] | DC50 (BRAF G466V; [3]) [µM] | Dmax (BRAF G466V; [4]) [%] | DC50 (BRAF G469A; [5]) [µM] | Dmax (BRAF G469A; [6]) [%] | DC50 (BRAF D594G; [7]) [µM] | Dmax (BRAF D594G; [8]) [%] | DC50 (BRAF V600E; [9]) [µM] | Dmax (BRAF V600E; [10]) [%] | DC50 (BRAF G466V; [11]) [µM] | Dmax (BRAF G466V; [12]) [%] | DC50 (BRAF G469A; [13]) [µM] | Dmax (BRAF G469A; [14]) [%] | DC50 (BRAF D594G; [15]) [µM] | Dmax (BRAF D594G; [16]) [%]
CCCS(=O)(=O)Nc1cccc(-c2nc(C(C)(C)C)sc2-c2ccnc(Nc3cnn(C4CCN(CC5CCN(c6ccc7c(=O)n(C8CCC(=O)NC8=O)ccc7c6)CC5)CC4)c3)n2)c1F (racemic) [Compound 80, Rac-N-[3-(2-tert-butyl-5-{2-[(1-f{1-[(1-{2-[(3R)-2,6-dioxopiperidin-3-yl]-1-oxo-1,2-dihydroisoquinolin-6-yl}piperidin-4-yl)methyl]piperidin-4-yl}-1H-pyrazol-4-yl)amino]pyrimidin-4-yl}-1,3-thiazol-4-yl)-2-fluorophenyl]propane-1-sulfonamide] | < 0.01 | > 70 | > 0.5 | 30 to 70 | > 0.5 | < 30 | > 0.5 | 30 to 70 |  |  |  |  |  |  |  | 
C[C@@H]1CN(c2ccc(-n3cc(-c4cc(F)cc(NS(=O)(=O)N5CCCC5)c4F)c(-c4ccncc4)n3)c(F)c2)CCN1CC1CCN(c2ccc(C3CCC(=O)NC3=O)cn2)CC1 (mixture of isomers) [Compound 289, N-(3-(1-(4-((R)-4-((1-(5-((RS)-2,6-dioxopiperidin-3-yl)pyridin-2-yl)piperidin-4-yl)methyl)-3-methylpiperazin-1-yl)-2-fluorophenyl)-3-(pyridin-4-yl)-1H-pyrazol-4-yl)-2,5-difluorophenyl)pyrrolidine-1-sulfonamide] |  |  |  |  |  |  |  |  | < 0.01 | > 70 | < 0.01 | > 70 | 0.01 to 0.05 | > 70 | < 0.01 | > 70
O=C1CCN(c2ccc(N3CCC(CN4CCN(c5ccc(-n6cc(-c7cc(Cl)cc(NS(=O)(=O)N8CC[C@@H](F)C8)c7F)c(-c7ccncc7)n6)cc5F)CC4)CC3)cc2)C(=O)N1 [Compound 365, (3R)—N-[5-chloro-3-(1-{4-[4-({1-[4-(2,4-dioxo-1,3-diazinan-1-yl)phenyl]piperidin-4-yl}methyl)piperazin-1-yl]-3-fluorophenyl}-3-(pyridin-4-yl)-1H-pyrazol-4-yl)-2-fluorophenyl]-3-fluoropyrrolidine-1-sulfonamide] |  |  |  |  |  |  |  |  | < 0.01 | > 70 | < 0.01 | 30 to 70 | > 0.5 | 30 to 70 | < 0.01 | 30 to 70
O=C1CCN(c2ccc(N3CCC(CN4CCN(c5ccc(-n6cc(-c7cc(Cl)cc(NS(=O)(=O)N8CC[C@@H](F)C8)c7F)c(-c7ccncc7)n6)c(F)c5)CC4)CC3)nc2)C(=O)N1 [Compound 371, (3R)—N-[5-chloro-3-(1-{4-[4-({1-[5-(2,4-dioxo-1,3-diazinan-1-yl)pyridin-2-yl]piperidin-4-yl}methyl)piperazin-1-yl]-2-fluorophenyl}-3-(pyridin-4-yl)-1H-pyrazol-4-yl)-2-fluorophenyl]-3-fluoropyrrolidine-1-sulfonamide] |  |  |  |  |  |  |  |  | < 0.01 | > 70 | < 0.01 | 30 to 70 | < 0.01 | 30 to 70 | < 0.01 | 30 to 70
CCCS(=O)(=O)Nc1cccc(-c2nc(C3CCN(C(=O)C4CCN(C(=O)C5CCN(c6ccc(C7CCC(=O)NC7=O)cn6)CC5)CC4)CC3)sc2-c2ccncn2)c1F (racemic) [Compound 220, Rac-N-[3-(2-{1-[1-(1-{5-[(3R)-2,6-dioxopiperidin-3-yl]pyridin-2-yl}piperidine-4-carbonyl)piperidine-4-carbonyl]piperidin-4-yl}-5-(pyrimidin-4-yl)-1,3-thiazol-4-yl)-2-fluorophenyl]propane-1-sulfonamide] | < 0.01 | > 70 | 0.01 to 0.05 | 30 to 70 | > 0.5 | 30 to 70 | < 0.01 | 30 to 70 |  |  |  |  |  |  |  | 
C[C@@H]1CN(c2ccc(-n3cc(-c4cc(Cl)cc(NS(=O)(=O)N5CC[C@@H](F)C5)c4F)c(-c4ccncc4)n3)nc2)CCN1CC1CCN(c2ccc(C3CCC(=O)NC3=O)cn2)CC1 (mixture of isomers) [Compound 321, (3R)—N-[5-chloro-3-(1-{5-[(3R)-4-[(1-{5-[(3RS)-2,6-dioxopiperidin-3-yl]pyridin-2-yl}piperidin-4-yl)methyl]-3-methylpiperazin-1-yl]pyridin-2-yl}-3-(pyridin-4-yl)-1H-pyrazol-4-yl)-2-fluorophenyl]-3-fluoropyrrolidine-1-sulfonamide] |  |  |  |  |  |  |  |  | < 0.01 | > 70 | < 0.01 | > 70 | < 0.01 | > 70 | < 0.01 | > 70
O=C1CC[C@H](c2ccc(N3CCC(CN4CCN(c5ccc(-n6cc(-c7cc(Cl)cc(NS(=O)(=O)N8CC(F)C8)c7F)c(-c7ccncc7)n6)c(F)c5)CC4)CC3)cc2)C(=O)N1 [Compound 338, N-{5-chloro-3-[1-(4-{4-[(1-{4-[(3R)-2,6-dioxopiperidin-3-yl]phenyl}piperidin-4-yl)methyl]piperazin-1-yl}-2-fluorophenyl)-3-(pyridin-4-yl)-1H-pyrazol-4-yl]-2-fluorophenyl}-3-fluoroazetidine-1-sulfonamide] |  |  |  |  |  |  |  |  | < 0.01 | > 70 | < 0.01 | > 70 | < 0.01 | 30 to 70 | < 0.01 | 30 to 70
CCCS(=O)(=O)Nc1cccc(-c2nc(C(C)(C)C)sc2-c2ccnc(NC3CC4(C3)CN(C(=O)C3(F)CCN(CC5CCN(c6ccc(C7CCC(=O)NC7=O)cc6)CC5)CC3)C4)n2)c1F (racemic) [Compound 141, Rac-N-[3-(2-tert-butyl-5-{2-[(2-{1-[(1-{4-[(3R)-2,6-dioxopiperidin-3-yl]phenyl}piperidin-4-yl)methyl]-4-fluoropiperidine-4-carbonyl}-2-azaspiro[3.3]heptan-6-yl)amino]pyrimidin-4-yl}-1,3-thiazol-4-yl)-2-fluorophenyl]propane-1-sulfonamide] | 0.01 to 0.05 | > 70 | > 0.5 | < 30 | > 0.5 | < 30 | > 0.5 | < 30 |  |  |  |  |  |  |  | 
O=C1CCC(c2ccc(N3CCC(CN4CCN(c5ccc(-n6cc(-c7cc(Cl)cc(NS(=O)(=O)N8CC[C@@H](F)C8)c7F)c(-c7ccncc7)n6)c(F)c5)CC4)CC3)nc2)C(=O)N1 (mixture of isomers) [Compound 335, (3R)—N-{5-chloro-3-[1-(4-{4-[(1-{5-[(3RS)-2,6-dioxopiperidin-3-yl]pyridin-2-yl}piperidin-4-yl)methyl]piperazin-1-yl}-2-fluorophenyl)-3-(pyridin-4-yl)-1H-pyrazol-4-yl]-2-fluorophenyl}-3-fluoropyrrolidine-1-sulfonamide] |  |  |  |  |  |  |  |  | < 0.01 | > 70 | < 0.01 | > 70 | 0.01 to 0.05 | > 70 | < 0.01 | > 70
O=C1CC[C@H](c2ccc(N3CCC(CN4CCN(c5ccc(-n6cc(-c7cc(Cl)cc(NS(=O)(=O)N8CC[C@@H](F)C8)c7F)c(-c7ccncc7)n6)cc5)CC4)CC3)nc2)C(=O)N1 [Compound 264, (R)—N-(5-chloro-3-(1-(4-(4-((1-(5-((R)-2,6-dioxopiperidin-3-yl)pyridin-2-yl)piperidin-4-yl)methyl)piperazin-1-yl)phenyl)-3-(pyridin-4-yl)-1H-pyrazol-4-yl)-2-fluorophenyl)-3-fluoropyrrolidine-1-sulfonamide] |  |  |  |  |  |  |  |  | < 0.01 | > 70 | < 0.01 | > 70 | < 0.01 | > 70 | < 0.01 | > 70
